Results reported in patent US8226943B2, “Antibodies to notch receptors” (OncoMed Pharmaceuticals, Inc., priority 2008, dated 2012).
Blank lines part the entries; values can stand above or below the substance they belong to.

Experiments:
[1] = tested on: B51 breast tumors; assay: Limiting dilution assay of cancer stem cell frequency, B51 breast tumors; type: in vivo, NOD-SCID mice
Excerpt: Limiting dilution assays (LDAs) can be used to assess the effect of a Notch-binding agent on solid tumor cancer stem cells and on the tumorigenicity of a tumor comprising the cancer stem cells. The assays can be sued to determine the frequency of cancer stem cells in tumors from animals treated with the Notch-binding agent or other agent and to compare that frequency to the frequency of cancer stem cells in tumors from control animals.
An LDA was used to assess the effect on the tumorigenicity of the B51 breast tumors that were treated with the combination of control antibody (1B711) plus paclitaxel (Taxol) or treated with the combination of 59R1 and paclitaxel, as described above in Example 7. In addition, the effect of treatment of B51 breast tumors with the control antibody alone or 59R1 alone was also determined by LDA. The doses of antibodies and paclitaxel and the schedule of dosing for the control antibody group and the 59R1 group were the same as described in Example 7, above for the other two treatment groups. After three doses of antibodies and/or paclitaxel, tumors were harvested, processed and dissociated into single cells. The human tumor cells were isolated from the xenograft tumor cells by incubation with biotinylated mouse antibodies (α-mouse CD45-biotin1:200 dilution and rat α-mouse H2 Kd-biotin1:100 dilution, BioLegend, San Diego, Calif.) on ice for 30 min, followed by addition of streptavidin-labeled magnetic beads and removal of the mouse cells with the aid of a magnet. The human cells in the suspension were harvested and counted.
A serial titration of cells (30, 90, 270, and 810 cells) from each of the four treatment groups was injected in a 1:1 (v/v) mixture of FACS buffer and Matrigel into a new set of NOD-SCID mice (n=10/group). Tumors were allowed to grow for 72 days. The percentage of mice with detectable tumors was determined in all groups. The cancer stem cell frequency was then calculated using L-Calc™ software (StemCell Technologies Inc.; downloadable from www.stemcell.com/search/default.asp).

[2] = target: T1, human Notch3 (Homo sapiens, UniProt Q9UM47); assay: FACS binding to transiently transfected HEK-293 cells, human Notch3; parameters: expressed in transfected cells
T1 sequence (Q9UM47 40-2321): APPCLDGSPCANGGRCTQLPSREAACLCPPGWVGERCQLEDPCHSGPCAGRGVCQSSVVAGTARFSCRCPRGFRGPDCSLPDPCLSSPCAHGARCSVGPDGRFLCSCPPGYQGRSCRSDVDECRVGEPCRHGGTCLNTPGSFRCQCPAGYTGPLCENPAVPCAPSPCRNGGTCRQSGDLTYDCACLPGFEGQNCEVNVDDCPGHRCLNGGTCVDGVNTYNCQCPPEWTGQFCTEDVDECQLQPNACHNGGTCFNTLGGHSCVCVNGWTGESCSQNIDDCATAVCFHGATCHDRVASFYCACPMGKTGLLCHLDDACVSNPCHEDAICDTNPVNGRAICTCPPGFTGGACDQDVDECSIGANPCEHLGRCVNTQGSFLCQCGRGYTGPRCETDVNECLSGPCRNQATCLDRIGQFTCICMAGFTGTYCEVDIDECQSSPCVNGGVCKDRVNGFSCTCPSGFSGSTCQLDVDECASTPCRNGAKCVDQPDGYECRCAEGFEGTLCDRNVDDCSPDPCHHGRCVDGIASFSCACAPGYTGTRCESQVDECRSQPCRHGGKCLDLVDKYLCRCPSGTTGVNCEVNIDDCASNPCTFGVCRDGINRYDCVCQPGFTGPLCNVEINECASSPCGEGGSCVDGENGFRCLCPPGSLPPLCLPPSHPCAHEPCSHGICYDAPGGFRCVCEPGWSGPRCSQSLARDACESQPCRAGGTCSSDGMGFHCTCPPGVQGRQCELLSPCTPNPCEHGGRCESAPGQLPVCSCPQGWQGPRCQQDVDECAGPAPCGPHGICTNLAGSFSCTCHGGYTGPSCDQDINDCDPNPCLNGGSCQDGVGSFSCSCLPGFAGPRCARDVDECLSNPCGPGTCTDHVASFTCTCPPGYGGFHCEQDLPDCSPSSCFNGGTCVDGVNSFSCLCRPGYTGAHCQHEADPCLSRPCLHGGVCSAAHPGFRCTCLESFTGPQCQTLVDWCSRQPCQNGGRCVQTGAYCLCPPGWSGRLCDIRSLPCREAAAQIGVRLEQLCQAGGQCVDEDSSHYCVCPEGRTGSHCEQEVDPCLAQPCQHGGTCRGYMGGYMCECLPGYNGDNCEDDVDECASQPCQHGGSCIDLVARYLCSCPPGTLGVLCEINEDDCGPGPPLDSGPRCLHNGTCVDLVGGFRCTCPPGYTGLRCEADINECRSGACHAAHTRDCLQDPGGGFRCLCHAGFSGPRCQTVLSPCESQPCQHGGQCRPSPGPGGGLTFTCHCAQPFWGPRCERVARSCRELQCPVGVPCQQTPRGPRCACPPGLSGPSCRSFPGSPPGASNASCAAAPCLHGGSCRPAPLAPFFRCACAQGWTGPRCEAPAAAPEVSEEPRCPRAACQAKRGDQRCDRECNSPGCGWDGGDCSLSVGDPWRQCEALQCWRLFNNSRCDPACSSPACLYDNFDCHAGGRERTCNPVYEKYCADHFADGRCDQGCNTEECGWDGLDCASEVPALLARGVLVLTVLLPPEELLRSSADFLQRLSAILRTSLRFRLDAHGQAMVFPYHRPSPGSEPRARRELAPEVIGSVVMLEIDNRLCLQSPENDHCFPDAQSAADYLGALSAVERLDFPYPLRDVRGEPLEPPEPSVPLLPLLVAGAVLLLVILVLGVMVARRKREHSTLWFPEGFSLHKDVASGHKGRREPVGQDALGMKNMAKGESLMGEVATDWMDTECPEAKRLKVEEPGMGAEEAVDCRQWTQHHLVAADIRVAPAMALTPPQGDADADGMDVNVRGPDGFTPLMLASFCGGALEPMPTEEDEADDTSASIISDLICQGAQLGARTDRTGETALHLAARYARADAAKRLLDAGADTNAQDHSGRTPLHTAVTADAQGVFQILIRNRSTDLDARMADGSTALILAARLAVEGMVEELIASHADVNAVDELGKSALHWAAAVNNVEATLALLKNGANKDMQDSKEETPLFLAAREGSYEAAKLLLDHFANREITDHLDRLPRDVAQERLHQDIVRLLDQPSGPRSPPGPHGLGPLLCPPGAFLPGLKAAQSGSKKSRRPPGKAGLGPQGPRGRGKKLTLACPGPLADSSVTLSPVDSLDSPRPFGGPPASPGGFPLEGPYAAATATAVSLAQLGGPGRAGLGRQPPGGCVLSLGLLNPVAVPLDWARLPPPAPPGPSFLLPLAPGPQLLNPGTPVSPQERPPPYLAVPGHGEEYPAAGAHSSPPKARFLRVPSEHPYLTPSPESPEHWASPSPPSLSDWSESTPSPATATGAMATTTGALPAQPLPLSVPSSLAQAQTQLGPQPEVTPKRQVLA
Protocol: The ability of the 59R1 IgG2 antibody to cross-react with other Notch receptors was determined by FACS assay using HEK-293 cells transiently transfected with the human Notch1, Notch2, Notch3 or Notch4 expression plasmid and green fluorescent protein (GFP) as a transfection control. GFP positive cells indicated expression of the transgene. The 59R1 IgG2 was added to the cells at 2 μg/ml and detected by PE-conjugated goat anti-human Fc gamma specific (Jackson Immunochemicals). All Notch constructs were full length.

[3] = tested on: stroma of T1 tumors; assay: Microarray gene expression in stroma of treated xenograft tumors, T1; type: in vivo, mice; conditions: 59R1 vs control
[4] = tested on: Colo-205 colon tumors and PE-13 breast tumors; assay: Pimonidazole staining for hypoxic regions in treated tumors; type: in vivo, mice
Protocol: Staining for hypoxic regions was performed in Colo-205 colon tumors and PE-13 breast tumors that had been treated either with 59R1 IgG2 antibody or with 1B711 control antibody. The staining was performed as described in Ridgway et al., 2006, Nature 444:1083-1087. Briefly, to measure hypoxia, pimonidazole-hydrochloride (HypoxyProbe, NPI, Burlington, Mass.), which forms long-lived protein adducts at partial pressure of oxygen less than approximately 10 mm Hg, was injected intraperitoneally at 60 mg/kg 1 hr prior to sacrifice. Tumors were then processed for histological analysis, and tumor sections were stained using anti-pimonidazole antibody following manufacturer's protocol (NPI). Photographs were taken using a BX51 microscope (Olympus, Center Valley, Pa.).
AF594-conjugated goat anti-rat F(ab′)2 was used to detect anti-CD31 antibody and FITC-conjugated goat anti-rabbit antibody was used to detect anti-pimonidazole antibody.

[5] = tested on: hJAG2-induced Notch2 signaling; assay: Luciferase reporter assay, hJAG2-induced Notch2 signaling in Hela cells; type: cell-based, human; conditions: 40 μg/ml
Protocol: Luciferase reporter assays were used to assay the 59R1 antibody for its ability to block hDLL4-, hJAG1-, and hJAG2-induced Notch2 signaling.
Hela cells that stably overexpress human Notch2 were transiently transfected with firefly luciferase with a synthetic 8×CBS promoter, pSPORT6 MAML-1, and Renilla luciferase-CMV as a transfection control. Cells were incubated with either 200 ng of immobilized hJAG1 (R&D systems) or hJAG2 (R&D systems) for 16 hours and then assayed using Dual-Glo (Promega) according to the manufacturer's instructions. 59R1 IgG2 antibody was at a concentration of 40 μg/ml. The gamma secretase inhibitor (GSI) dibenzazepine (DBZ) was used as a control at 1 μM.

[6] = target: T2, binding of DLL4 to the human Notch 2 receptor (Homo sapiens, UniProt Q04721); assay: FACS blocking of hDLL4 ECD-Fc binding to human Notch2 on HEK-293 cells; conditions: HEK-293 stably overexpressing human Notch2
T2 construct: expressed in transfected cells; host or cells: HEK-293, stably overexpressing human Notch2
T2 sequence (Q04721 26-2471): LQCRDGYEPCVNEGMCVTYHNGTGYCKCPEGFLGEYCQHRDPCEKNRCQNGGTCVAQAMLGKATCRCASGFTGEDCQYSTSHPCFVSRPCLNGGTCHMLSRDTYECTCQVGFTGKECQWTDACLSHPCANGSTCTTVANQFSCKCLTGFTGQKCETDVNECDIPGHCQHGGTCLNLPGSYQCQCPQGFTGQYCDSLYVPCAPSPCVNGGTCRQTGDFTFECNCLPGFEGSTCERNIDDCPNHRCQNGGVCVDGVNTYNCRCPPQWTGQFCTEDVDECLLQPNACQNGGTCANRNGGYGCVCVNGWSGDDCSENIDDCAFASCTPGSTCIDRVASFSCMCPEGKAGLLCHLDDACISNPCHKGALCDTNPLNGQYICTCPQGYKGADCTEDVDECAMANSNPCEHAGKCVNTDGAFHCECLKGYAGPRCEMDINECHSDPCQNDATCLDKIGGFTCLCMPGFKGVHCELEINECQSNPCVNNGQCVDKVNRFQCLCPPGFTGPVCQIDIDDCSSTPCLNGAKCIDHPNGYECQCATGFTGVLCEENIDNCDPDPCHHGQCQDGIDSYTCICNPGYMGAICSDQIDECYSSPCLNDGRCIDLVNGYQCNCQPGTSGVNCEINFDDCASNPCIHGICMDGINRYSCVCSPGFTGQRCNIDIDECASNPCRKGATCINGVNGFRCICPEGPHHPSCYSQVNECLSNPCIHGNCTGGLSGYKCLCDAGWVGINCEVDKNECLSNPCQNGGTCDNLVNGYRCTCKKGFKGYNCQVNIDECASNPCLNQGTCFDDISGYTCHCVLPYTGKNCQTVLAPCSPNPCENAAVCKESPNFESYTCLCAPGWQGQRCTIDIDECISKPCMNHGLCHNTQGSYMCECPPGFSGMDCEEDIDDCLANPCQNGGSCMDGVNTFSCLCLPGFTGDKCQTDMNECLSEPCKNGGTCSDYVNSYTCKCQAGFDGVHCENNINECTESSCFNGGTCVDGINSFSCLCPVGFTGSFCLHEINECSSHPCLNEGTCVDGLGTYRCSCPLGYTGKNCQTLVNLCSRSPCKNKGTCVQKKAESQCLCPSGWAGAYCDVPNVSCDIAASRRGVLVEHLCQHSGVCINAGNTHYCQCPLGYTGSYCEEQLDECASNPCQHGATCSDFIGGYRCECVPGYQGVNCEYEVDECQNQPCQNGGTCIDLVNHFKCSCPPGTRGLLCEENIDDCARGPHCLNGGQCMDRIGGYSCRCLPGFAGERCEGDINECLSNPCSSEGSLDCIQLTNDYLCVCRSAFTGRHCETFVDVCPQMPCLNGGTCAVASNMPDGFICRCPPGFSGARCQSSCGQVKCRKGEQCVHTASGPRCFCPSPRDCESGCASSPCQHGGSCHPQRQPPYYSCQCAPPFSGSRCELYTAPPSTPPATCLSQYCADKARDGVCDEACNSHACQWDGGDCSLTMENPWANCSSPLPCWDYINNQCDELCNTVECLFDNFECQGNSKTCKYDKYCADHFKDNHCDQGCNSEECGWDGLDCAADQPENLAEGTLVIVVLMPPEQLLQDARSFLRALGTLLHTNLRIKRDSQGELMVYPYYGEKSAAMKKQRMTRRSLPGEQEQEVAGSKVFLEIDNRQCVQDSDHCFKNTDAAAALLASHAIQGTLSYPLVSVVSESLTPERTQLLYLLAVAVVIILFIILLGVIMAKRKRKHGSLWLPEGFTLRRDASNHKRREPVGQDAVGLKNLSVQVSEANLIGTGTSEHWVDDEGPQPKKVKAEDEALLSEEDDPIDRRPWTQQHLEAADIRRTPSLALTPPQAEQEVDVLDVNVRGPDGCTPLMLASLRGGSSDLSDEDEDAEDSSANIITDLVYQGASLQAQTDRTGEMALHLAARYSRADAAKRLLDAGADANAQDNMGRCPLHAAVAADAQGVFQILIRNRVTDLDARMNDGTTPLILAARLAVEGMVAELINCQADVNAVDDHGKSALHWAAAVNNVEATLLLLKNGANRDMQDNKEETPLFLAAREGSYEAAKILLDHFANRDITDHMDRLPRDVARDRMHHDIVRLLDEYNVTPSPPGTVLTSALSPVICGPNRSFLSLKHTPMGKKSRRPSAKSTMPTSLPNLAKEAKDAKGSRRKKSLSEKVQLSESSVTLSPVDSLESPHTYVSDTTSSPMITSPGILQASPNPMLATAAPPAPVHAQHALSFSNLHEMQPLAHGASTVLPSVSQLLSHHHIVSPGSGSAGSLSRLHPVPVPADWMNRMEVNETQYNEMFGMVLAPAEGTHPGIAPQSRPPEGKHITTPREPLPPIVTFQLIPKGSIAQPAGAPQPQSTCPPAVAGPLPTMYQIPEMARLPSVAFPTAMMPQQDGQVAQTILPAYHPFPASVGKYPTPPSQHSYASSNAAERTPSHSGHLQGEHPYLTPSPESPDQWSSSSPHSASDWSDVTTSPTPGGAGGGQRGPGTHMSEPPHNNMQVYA
Protocol: In addition, the 59R1 IgG2 antibody was assayed for its ability to block binding of DLL4 to the human Notch 2 receptor by FACS analysis. HEK-293 cells stably overexpressing human Notch2 were incubated with the antibody at various concentration and then detected for hNotch2 binding (FIG. 1C) by PE-conjugated goat anti-human Fc gamma specific antibody, or ligand blocking activity (FIG. 1D). Ligand blocking was determined by incubating the cells with human DLL4 ECD tagged with the rabbit Fc constant region and the 59R1 antibody at a range of concentrations, and then detecting the hDLL4 by PE-conjugated donkey anti-rabbit antibody. Binding of hNotch2 and ligand blocking activity were thus confirmed for the 59R1 IgG2 antibody.

[7] = target: T1, human Notch3; assay: DLL4-Fc induced receptor activation in transfected PC3 cells, human Notch3; type: cell-based; parameters: expressed in transfected cells; host or cells: PC3 tumor cells, transient; conditions: immobilized DLL4-Fc
Protocol: 59R5 was determined to have similar activity in blocking Notch2 and Notch3 signaling as 59R1. Receptor activation was determined in luciferase-based assays. PC3 tumor cells were transiently transfected with a human or mouse Notch receptor (human Notch2, murine Notch2, human Notch3, or murine Notch3) and […] inducible reporter construct. Transfected cells were incubated with different concentrations of 59R1 or 59R5 antibody in the presence of passively immobilized DLL4-Fc protein. Notch receptor activation was determined by measuring luciferase activity.

[8] = B51, combination of 59R1 and paclitaxel

binding to full-length human Notch3 (FACS) [2]: specifically binds
blocking of hDLL4 binding to human Notch2 (FACS) [6]: confirmed
Substance: 59R1: human IgG2 antibody binding Notch2 and Notch3; heavy and light chain SEQ ID NO:16 and 18; ATCC PTA-9547
reduction of cancer stem cell frequency relative to the control ([1]; B51, 59R1 alone): more than two-fold
reduction of cancer stem cell frequency relative to treatment with 59R1 alone [1, 8]: more than two-fold
reduction of cancer stem cell frequency relative to treatment with paclitaxel alone [1, 8]: about twelve-fold
reduction of cancer stem cell frequency relative to treatment with the control antibody [1, 8]: about 4.5 fold
Fold 1416286_at (Rgs4) [3]: −1.13
Fold 1417466_at (Rgs5) [3]: −1.99
Fold 1417714_x_at (Hba-al/Hba-a2) [3]: 1.42
Fold 1418829_a_at (Eno2) [3]: 1.29
Fold 1419302_at (Heyl) [3]: −1.07
Fold 1420872_at (Gucy1b3) [3]: −1.01
Fold 1420941_at (Rgs5) [3]: −1.97
Fold 1420942_s_at (Rgs5) [3]: −1.18
Fold 1421964_at (Notch3) [3]: −1.01
Fold 1422789_at (Aldh1a2) [3]: −2.16
Fold 1428361_x_at (Hba-al/Hba-a2) [3]: 1.73
Fold 1434141_at (Gucy1a3) [3]: 1.20
Fold 1449280_at (Esm1) [3]: 1.18
Fold 1449632_s_at (Fkbp10) [3]: 1.07
Fold 1451501_a_at (Ghr) [3]: −1.12
Fold 1452590_a_at (Plac9) [3]: 1.20
Fold 1459713_s_at (Tmem16a) [3]: −2.14
hypoxic regions (anti-pimonidazole antibody) versus 1B711 treated tumors ([4]; Colo-205 and PE13 tumors): significantly more pronounced
number of CD31-positive cells ([4]; treated tumors versus 1B711): remained unchanged
hJAG2-induced Notch2 reporter activity [5]: inhibit

ligand-induced activation of human Notch3 receptor signaling [7]: blocked
Substance: 59R5: human antibody that specifically binds human Notch 2 and human Notch 3; heavy and light chain SEQ ID NO:49 and 18; ATCC PTA-10170
